Laboratory results as given in US20230173295A1, “Systems, Devices, and Methods for Gamma Entrainment using Sensory Stimuli to Alleviate Cognitive Deficits and/or Neuroinflammation Induced by Chemotherapy Agents” (Massachusetts Institute of Technology, priority 2020, published 2023).
Entries after “also recorded” stand apart in the source; their conditions may differ.

Key:
C57/BL6J male mouse [1] = test: MTX induced chemo brain model: survival rate and body weight; conditions: 100 mg/kg MTX i.p.
Description: P21 C57/BL6J male mouse received i.p. injection of either 100 mg/kg MTX or volume-matched PBS on P21, P28, P35 (i.e., 21 days after birth/21 days old, 28 days old, 35 days old) (FIG. 1A). Stim (S) group received 1 hr of 40 Hz audio+visual sensory stimulation immediately after the first injection, and then received 1 hr stimulation every day after that day's injection until the day before they were sacrificed. No stim (NS) group stayed under a dim light for 1 hr immediately after the first injection, and then stayed under a dim light for 1 hr every day until the day before they were sacrificed. Every animal was single-caged in a caged covered with a black-plastic bag on every wall but one side for the duration of 1 hr stim/sham period and then group housed with their littermates.
Another chemotherapeutic agent, methotrexate (MTX)-induced chemo brain animals were tested.

C57/BL6J male mouse [2] = test: MTX induced chemo brain model: novel object recognition (NOR); assay type: in vivo; conditions: MTX without GENUS
Description: Animals were habituated in an OFT box for 10 min, 3 consecutive days. On the 4th day, two identical wooden blocks (Premium wooden building blocks set, Cubbie Lee) were placed in the chamber, and animals were allowed to explore the objects for 5 min, then the animals were returned to their home cage for 5 min. In the test phase, one of the wooden block is switched to a novel wooden block with a different shape, and the time spent exploring the familiar and new object was measured for 10 min. Discrimination ratio was calculated as time spent to explore the new object divided by the sum of time spent to explore both old and new object.
(§1) OFT, MWM behavior was tracked with a behavior tracking software (EthoVision XT, Nodulus). NOR and puzzle box behavior was scored by manual counting. Zeiss LSM 710 and Zeiss LSM 880 confocal microscope with Zen software was used to capture fluorescence images. A 3D image analysis software (IMARIS, Bitplane) was used to score Iba1 and GFAP positive voxels, and the area covered by MBP, ventricle size and cell number counting was scored with ImageJ software. Researcher was blinded for the experimental group during data analysis.

C57/BL6J male mouse [3] = test: MTX induced chemo brain model: open field test (OFT); assay type: in vivo; conditions: MTX vs PBS
Description: Animals were placed in the center of 45×45 cm×40 cm (W×L×H) white acrylic box and their movement were tracked with a behavior tracking software (EthoVision XT, nodulus) for 10 min. 22.5 cm×22.5 cm area in the center of the box was marked as ‘center area’.
as §1

C57/BL6J male mouse [4] = test: MTX induced chemo brain model: immunohistochemistry of brain slices; assay type: in vivo; conditions: MTX NS
Description: 30˜40 μm thick vibratome sectioned brain slices were washed in PBS, then incubated in a blocking solution (3% normal donkey serum (Millipore Sigma, S30-M) and 0.3% Triton X-100 (Sigma-Aldrich, T8787-100ML) in PBS) for 2 hrs. Then, slices were treated with a blocking solution containing α-Iba1 (1:500, Abcam, ab178846), α-GFAP (1:1000, Novus Biologicals, NBP1-05198), α-MBP (1:500, Millipore, AB9348), α-yH2AX (1:500, EMD Millipore, 05-636), α-Iba1 (1:500, SYSY, 234004), α-Olig2 (1:200, Abcam, ab109186), α-Pdgfra (1:100, Abcam, ab90967) and α-Dcx (1:500, Cell signaling technology, 4604S) in a 4° C.-10° C. controlled cold room for 2 overnight. […]
as §1, with “Researcher was blinded for the experimental group during data analysis.” left out

C57/BL6J male mouse [5] = test: MTX induced chemo brain model: Morris water maze (MWM) test; assay type: in vivo
Description: A circular cylinder with 122 cm diameter was filled with tap water (22° C.-24° C.) and a white paint was added to make the water opaque. The area was divided into 4 equal quardrants and a 10 cm diameter platform was placed in the center of the target quardrant (TQ), the platform being 1 inch lower than the water level. On the first day of training, animals were placed on the platform for 30 seconds, and then retrieved from the water (priming). After 1 minute of priming, animals were placed into the chamber facing the chamber wall. Time to reach the platform was measured when the animal was sitting on the platform for >1s. For 5 consecutive days, animals performed two trials, spaced 1 min. After 5 days of training, the platform was removed from the chamber, and the animals were placed in the center of the chamber. For 1 min duration, time spent in TQ were measured Novel Object Recognition (NOR)
as §1

C57/BL6J male mouse [6] = test: MTX induced chemo brain model: puzzle box test; assay type: in vivo; conditions: MTX treatment
Description: Animals were placed in a testing arena containing a lighted (55 cm×28 cm) and a dark (15 cm×28 cm) compartment with a connecting tunnel (4 cm×4 cm×2.5 cm), facing the farthest wall from the dark compartment. 3 trials were performed for 3 days. 1 introductory period without any obstacles blocking the tunnel and 2 ‘easy task’ in which animals have to pass a corridor (4 cm×4 cm×12 cm). On day 2, 1 ‘easy task’ and 2 ‘intermediate task’ in which the corridor is blocked with sawdust and the animals have to dig through to reach the dark chamber were performed. On day 3, 1 ‘intermediate task’ and 2 ‘hard task’ where the tunnel was plugged with a tissue were performed. Time of the first entry to the dark chamber was recorded for every trials.
as §1

CN(Cc1cnc2nc(N)nc(N)c2n1)c1ccc(C(=O)N[C@@H](CCC(=O)O)C(=O)O)cc1 [MTX, methotrexate]
survival rate (C57/BL6J male mouse [1]; 1 week after the first administration): ~60%
lethality (C57/BL6J male mouse [1]; within 1 week after the first MTX injection): 40%
NOR: time exploring novel and familiar object (C57/BL6J male mouse [2]): spent comparable time exploring noble and familiar object
locomotion in OFT (C57/BL6J male mouse [3]): neither GENUS nor methotrexate (MTX) treatment affected locomotion
time spent in center area during OFT (C57/BL6J male mouse [3]): GENUS but not MTX significantly increased time spent in center area
Iba1 signal in corpus callosum (C57/BL6J male mouse [4]): dramatically increased; also recorded: significantly higher
MWM performance: swimming speed, spatial learning and memory (C57/BL6J male mouse [5]; PBS NS, MTX NS, PBS S, MTX S): comparable performance in swimming speed, spatial learning and memory
MWM learning curve (C57/BL6J male mouse [5]; mouse, in vivo): neither MTX nor GENUS altered learning curve
MWM swimming speed (C57/BL6J male mouse [5]; mouse, in vivo): neither MTX nor GENUS altered swimming speed
puzzle box test performance (C57/BL6J male mouse [6]): cognitive impairment
